Data taken from patent publication US9499530B2 (HANGZHOU MINSHENG INSTITUTES FOR PHARMA RESEARCH, priority 2011, dated 2016).
“Also recorded” adds a separate entry of the source.

How the values were obtained:
[1] = target: EGFR (Epidermal Growth Factor Receptor 1) (Homo sapiens, UniProt P00533); test: ELISA protein tyrosine kinase inhibition, EGFR; type: biochemical; details: for IC50: ELISA, Poly(Glu, Tyr) 4:1 substrate, ATP 5 μM, test samples at 10-5 mol/l, read-out: EGFR inhibitory activity (IC50 class)
From the text: (§1) Determining the Effect of Test Samples at a Concentration of 10-5 Mol/l on the Activity of the Substrate Phosphoryation Catalyzed by EGFR (Epidermal Growth Factor Receptor 1), ErbB-2 (Epidermal Growth Factor Receptor 2), ErbB-4, KDR (Vascular Endothelial Growth Factor Receptor 2) Protein Tyrosine Kinases at Molecular Level
(§2) Enzyme-Linked Immunosorbent Assay (ELISA)
(§3) Main instrument: wavelength-tunable microplate reader (VERSAmax).
(§4) Main reagents: kinase reaction substrate Poly(Glu, Tyr) 4:1 from Sigma; anti-phosphotyrosine monoclonal antibody PY99 from Santa Cruz; horseradish peroxidase-labeled goat anti-mouse IgG from Calbiochem; ATP, DTT, OPD from Amresco, and ELISA plate from Corning.
(§5) Poly(Glu, Tyr)4:1 as an enzyme substrate was diluted by potassium ion-free PBS into 20 μg/ml, and an ELISA plate was coated and subjected to reaction for 12-16 h at 37° C. After the liquid in wells was removed, the plate was washed three time by T-PBS, 5 min for each time. The ELISA plate was then dried in an oven at 37° C. The coated wells were added with the test samples: the test samples were prepared for a stock solution with a concentration of 1×10^−2M in DMSO. The aliquot solution was stored at −20° C., and diluted to the desired concentration with reaction buffer before use. The resulting solution was added into the wells so that the final concentration of 10-5 mol/l in 100 μL reaction system can be obtained. At the same time, a positive control well was set up and a positive control compound Su11248 was added. ATP and test tyrosine kinases were added: ATP solution diluted with reaction buffer was added (the final concentration of ATP is 5 μM). Finally, the test tyrosine kinases solution diluted with reaction buffer was added. The total volume of the reaction system was […]. Meanwhile, a negative control well and a control well without enzyme were set up. The reaction system was placed in a wet box, and shaked for 1 hour at 37° C., shielding from light. After the reaction was complete, the plate was washed by T-PBS three times. Antibody PY99 was added at 100 μL/well; and the plate was shaked for 30 min at 37° C. After the reaction was complete, the plate was washed with T-PBS three times. Horseradish peroxidase-labeled goat anti-mouse IgG was added at 100 μL/well, and the plate was shaked for 30 min at 37° C. The plate was washed with T-PBS three times. OPD developing liquid was added at 100 μL/well, and reacted for 1-10 min at room temperature, shielding from light. 50 μL of 2 M H2SO4 was added to stop the reaction. A492 value was determined using wavelength-tunable microplate reader. The inhibition ratio of the samples can be calculated by the following equation: […]

[2] = target: ErbB-4 (Homo sapiens, UniProt Q15303); test: ELISA protein tyrosine kinase inhibition, ErbB-4; type: biochemical; details: for IC50: ELISA, Poly(Glu, Tyr) 4:1 substrate, ATP 5 μM, test samples at 10-5 mol/l, read-out: ErbB4 inhibitory activity (IC50 class)
ErbB-4, sequence (Q15303 26-1308): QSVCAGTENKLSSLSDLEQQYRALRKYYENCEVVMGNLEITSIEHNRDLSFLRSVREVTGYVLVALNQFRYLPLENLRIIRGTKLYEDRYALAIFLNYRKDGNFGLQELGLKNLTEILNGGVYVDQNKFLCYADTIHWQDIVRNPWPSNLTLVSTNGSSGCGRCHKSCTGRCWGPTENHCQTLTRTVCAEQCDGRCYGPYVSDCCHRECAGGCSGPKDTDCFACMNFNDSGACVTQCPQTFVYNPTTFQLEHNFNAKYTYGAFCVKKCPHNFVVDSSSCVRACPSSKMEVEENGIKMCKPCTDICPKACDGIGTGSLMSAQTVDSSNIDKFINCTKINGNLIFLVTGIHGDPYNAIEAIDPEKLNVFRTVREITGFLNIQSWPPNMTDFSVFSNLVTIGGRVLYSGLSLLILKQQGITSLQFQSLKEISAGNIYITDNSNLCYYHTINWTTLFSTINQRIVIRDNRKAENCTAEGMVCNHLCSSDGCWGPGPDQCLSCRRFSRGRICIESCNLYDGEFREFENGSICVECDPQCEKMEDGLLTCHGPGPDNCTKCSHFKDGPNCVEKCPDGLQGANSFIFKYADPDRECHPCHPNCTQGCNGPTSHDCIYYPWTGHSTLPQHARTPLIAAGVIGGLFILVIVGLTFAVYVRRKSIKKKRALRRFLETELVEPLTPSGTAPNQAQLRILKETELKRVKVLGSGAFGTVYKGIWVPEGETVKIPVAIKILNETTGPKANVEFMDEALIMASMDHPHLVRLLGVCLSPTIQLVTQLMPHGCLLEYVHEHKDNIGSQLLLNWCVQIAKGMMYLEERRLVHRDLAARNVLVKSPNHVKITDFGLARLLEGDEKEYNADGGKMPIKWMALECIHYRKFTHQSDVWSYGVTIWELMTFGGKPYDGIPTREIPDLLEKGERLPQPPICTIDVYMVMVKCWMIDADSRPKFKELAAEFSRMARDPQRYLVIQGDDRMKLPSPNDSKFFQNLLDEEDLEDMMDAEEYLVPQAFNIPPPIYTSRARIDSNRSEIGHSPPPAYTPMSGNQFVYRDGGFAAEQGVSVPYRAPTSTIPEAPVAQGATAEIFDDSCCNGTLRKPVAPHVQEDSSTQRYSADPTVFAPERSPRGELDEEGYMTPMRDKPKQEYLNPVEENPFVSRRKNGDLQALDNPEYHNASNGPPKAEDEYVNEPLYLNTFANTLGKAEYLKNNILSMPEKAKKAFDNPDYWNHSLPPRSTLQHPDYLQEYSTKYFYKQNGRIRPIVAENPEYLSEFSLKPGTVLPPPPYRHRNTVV
From the text: as §1, §2, §3, §4, §5

[3] = target: KDR (Vascular Endothelial Growth Factor Receptor 2) (Homo sapiens, UniProt P35968); test: ELISA protein tyrosine kinase inhibition, KDR; type: biochemical; details: for IC50: ELISA, Poly(Glu, Tyr) 4:1 substrate, ATP 5 μM, test samples at 10-5 mol/l, read-out: KDR inhibitory activity (IC50 class)
KDR (Vascular Endothelial Growth Factor Receptor 2), sequence (P35968 20-1356): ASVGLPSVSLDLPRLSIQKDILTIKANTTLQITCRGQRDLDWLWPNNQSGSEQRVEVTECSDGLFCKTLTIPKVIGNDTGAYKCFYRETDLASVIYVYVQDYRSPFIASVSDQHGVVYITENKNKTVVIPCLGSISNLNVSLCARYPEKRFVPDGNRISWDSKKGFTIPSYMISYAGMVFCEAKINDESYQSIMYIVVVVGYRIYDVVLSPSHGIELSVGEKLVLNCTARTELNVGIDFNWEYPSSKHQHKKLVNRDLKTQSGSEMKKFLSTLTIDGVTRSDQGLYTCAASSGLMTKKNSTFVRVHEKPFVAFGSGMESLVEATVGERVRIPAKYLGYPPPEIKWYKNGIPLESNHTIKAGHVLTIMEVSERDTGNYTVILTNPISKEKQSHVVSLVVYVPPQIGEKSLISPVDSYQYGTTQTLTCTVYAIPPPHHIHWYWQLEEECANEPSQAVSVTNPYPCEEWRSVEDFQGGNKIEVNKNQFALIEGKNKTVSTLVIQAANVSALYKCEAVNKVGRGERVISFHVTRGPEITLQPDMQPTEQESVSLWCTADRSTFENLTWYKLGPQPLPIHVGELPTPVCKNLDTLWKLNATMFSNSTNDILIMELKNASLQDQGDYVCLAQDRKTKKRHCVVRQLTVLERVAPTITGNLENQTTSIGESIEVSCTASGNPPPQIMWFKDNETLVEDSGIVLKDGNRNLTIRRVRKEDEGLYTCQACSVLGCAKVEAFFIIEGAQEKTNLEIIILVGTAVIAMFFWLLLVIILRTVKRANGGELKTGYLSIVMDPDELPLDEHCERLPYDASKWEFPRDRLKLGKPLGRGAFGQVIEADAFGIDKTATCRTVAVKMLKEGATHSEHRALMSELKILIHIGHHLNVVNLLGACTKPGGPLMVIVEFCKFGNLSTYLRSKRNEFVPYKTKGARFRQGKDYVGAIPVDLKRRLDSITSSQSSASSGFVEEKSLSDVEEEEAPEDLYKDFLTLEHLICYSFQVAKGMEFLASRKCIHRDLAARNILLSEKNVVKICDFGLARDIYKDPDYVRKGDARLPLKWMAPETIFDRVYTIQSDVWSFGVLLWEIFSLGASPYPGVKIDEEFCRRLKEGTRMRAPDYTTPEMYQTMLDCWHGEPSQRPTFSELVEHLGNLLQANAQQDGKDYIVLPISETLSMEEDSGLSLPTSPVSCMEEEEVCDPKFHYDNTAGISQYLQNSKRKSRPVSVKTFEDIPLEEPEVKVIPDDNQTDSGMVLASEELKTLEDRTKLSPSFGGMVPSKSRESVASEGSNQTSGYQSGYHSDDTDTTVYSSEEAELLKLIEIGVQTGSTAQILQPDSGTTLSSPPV
From the text: as §1, §2, §3, §4, §5

[4] = target: ErbB-2 (Epidermal Growth Factor Receptor 2) (Homo sapiens, UniProt P04626); test: ELISA protein tyrosine kinase inhibition, ErbB-2; type: biochemical; details: Poly(Glu, Tyr) 4:1 substrate, ATP 5 μM, test samples at 10-5 mol/l, read-out: ErbB2 inhibitory activity (IC50 class)
From the text: as §1, §2, §3, §4, §5

[5] = tested on: NCI-H1975 xenograft; test: Growth inhibition of NCI-H1975 xenograft in nude mice; type: in vivo; details: for T/C (%) / Tumor volume (mm^3) D 28: 5 consecutive days weekly for four weeks, D 28; for activity against NC1-H1975 (in words): tumor line with gene mutation, resistant to lapatinib
Experimental: Administration route: intragastric administration. Administration volume: 0.1 ml/10 g. Administration and frequency: administrating for 5 consecutive days and suspending administration for two days weekly for four weeks. Observation time: continuous observation for 28 days after starting administration. The tumor volume was measured twice a week. At the end of the experiment, the animals were sacrificed, weighed and photographed. Statistical method: SPSS 10.0 statistical software package, one-factor analysis of variance.

[6] = tested on: human lung cancer A549 xenograft; test: Growth inhibition of A549 xenograft in nude mice; type: in vivo; details: for TV (mm^3) End / TV (mm^3) Start / T/C (%): A549 xenograft; for TV (mm^3) End / TV (mm^3) Start / Weight (g) End / Weight (g) Start / T/C (%): 200 mg/kg intragastric; for TV (mm^3) End / Weight (g) End / T/C (%): 5 times per week for four weeks; for TV (mm^3) Start / Weight (g) Start: start of dosing; for Weight (g) End / Weight (g) Start: nude mice with A549 xenograft; for T/C (%): relative tumor growth ratio
From the text: Objective of the test: Determining the inhibition of some compounds of the present invention to the growth of human lung cancer A549 transplanted into nude mice and the action intensity thereof.
1. Human lung cancer A549 xenograft in nude mice, which was set up by subcutaneously transplantion of the human lung cancer A549 cell lines into right axillary fossa of nude mice. The amount of inoculation is 2×10^6 cells/mouse. Xenograft inoculated into the nude mice was passaged for 3 generations before use.
2. The solvent used in the experiments is: 0.5% of hydroxypropylmethyl cellulose and 0.1% of Tween-80.
3. Vigorous growing tumor tissues were selected to be chopped into approximately 1 mm^3. Under sterile conditions, the tumor tissue blocks were subcutaneously transplanted into right axillary fossa of nude mice. The diameters of the xenograft in nude mice were measured with a vernier caliper. When tumors reached approximately 100-300 mm^3 in size, the animals were randomly divided into groups, wherein there are 12 animals in solvent control group, and 6 animals per group in the other groups. […] The administered dosages were both 200 mg/kg, 5 times per week for consecutive four weeks. The diameters of the tumors were measured twice per week. The negative control group was intragastricly administrated the same amount of solvent. After the experiment, the mice were sacrificed. The tumors were surgically stripped and weighed. The tumor volume (TV) was calculated by the following equation:
[formula] in which a and b represents for the length and the width respectively.
According to the measured results, the relative tumor volume (RTV) was calculated. The calculation equation was: RTV=Vt/V0, wherein V0 is the tumor volume measured during cage administration (i.e. d0), Vt is the tumor volume of each measurement. The evaluation index of anti-tumor activity was the relative tumor growth ratio T/C (%), which was calculated by the following equation: […]
TRTV: treatment group's RTV; CRTV: negative control group's RTV.

[7] = NC1-H1975 xenograft, intragastric

Row | Compound | IC50 [1] | IC50 [2] | IC50 [3] | IC50 [4] | inhibitory activity against EGFR (in words) [1] | inhibition of c-ErbB4/HER4 (in words) [2] | T/C (%) [5, 7] | Tumor volume (mm^3) D 28 [5, 7] | TV (mm^3) End [6] | TV (mm^3) Start [6] | Weight (g) End [6] | Weight (g) Start [6] | T/C (%) [6] | growth inhibition of human lung cancer A549 compared with positive control lapatinib (in words) ([6]; xenograft in nude mice, 200 mg/kg) | inhibitory activity against KDR (in words) [3] | Tumor volume (mm^3) D 0 ([5]; NC1-H1975 xenograft, intragastric, D 0) | activity against NC1-H1975 (in words) [5]
1 | CS(=O)(=O)CCNCc1ccc(-c2ccc3ncnc(Nc4ccc(OCc5cccc(F)c5)c(Cl)c4)c3c2)o1 [Lapatinib, lapatinib, reference compound] |  |  |  |  |  |  | 104.26% | 2420.50 ± 1405.01 mm^3 | 943.2 ± 225.7^▴ mm^3 | 153.6 ± 64.8 mm^3 | 26.3 ± 3.3 g | 24.1 ± 2.9 g |  |  |  |  | 
2 | COc1cc2ncnc(Nc3ccc(F)c(Cl)c3)c2cc1OCCCN1CCOCC1 [Gefitinib] |  |  |  |  |  |  | 87.89% | 2164.44 ± 1064.85 mm^3 |  |  |  |  |  |  |  |  | almost no activity
3 | OCC(CO)NCc1ccc(-c2ccc3ncnc(Nc4ccc(OCc5cccc(F)c5)c(Cl)c4)c3c2)o1 [MS6·dimethanesulfonate, N-(3-chloro-4-((3-fluorobenzyl)oxy)phenyl)-6-((5-(2-(1,3-dihydroxypropyl)amino)methyl)-2-furyl)-4-quinazolinamine] | < 10 µM | < 10 µM | < 10 µM | < 10 µM |  |  |  |  | 844.5 ± 240.3^▴ mm^3 | 156.9 ± 64.5 mm^3 | 25.2 ± 1.4 g | 24.9 ± 1.3 g | 39.3% |  |  |  | 
4 | CC(=O)OCCNCc1ccc(-c2ccc3ncnc(Nc4ccc(OCc5cccc(F)c5)c(Cl)c4)c3c2)o1 | < 10 µM | < 10 µM | < 10 µM | < 10 µM |  |  |  |  |  |  |  |  |  |  |  |  | 

Further lines, with some results ahead:

Row | IC50 [1] | IC50 [2] | IC50 [3] | IC50 [4] | inhibitory activity against EGFR (in words) [1] | inhibition of c-ErbB4/HER4 (in words) [2] | Compound | T/C (%) [5, 7] | Tumor volume (mm^3) D 28 [5, 7] | TV (mm^3) End [6] | TV (mm^3) Start [6] | Weight (g) End [6] | Weight (g) Start [6] | T/C (%) [6] | growth inhibition of human lung cancer A549 compared with positive control lapatinib (in words) ([6]; xenograft in nude mice, 200 mg/kg) | inhibitory activity against KDR (in words) [3] | Tumor volume (mm^3) D 0 ([5]; NC1-H1975 xenograft, intragastric, D 0) | activity against NC1-H1975 (in words) [5]
5 | < 10 µM | < 10 µM | < 10 µM | < 10 µM |  |  | OCC(O)CNCc1ccc(-c2ccc3ncnc(Nc4ccc(OCc5cccc(F)c5)c(Cl)c4)c3c2)o1 (stereo not drawn) [MS31·dimethanesulfonate, N-(3-chloro-4-((3-fluorobenzyl)oxy)phenyl)-6-(5-((1-(2,3-dihydroxypropyl)amino)methyl)-2-furyl)-4-quinazolinamine] |  |  |  |  |  |  |  |  |  |  | 
6 | < 10 µM | < 10 µM | > 10 µM | > 10 µM | better inhibitory activity | very good inhibition | N-(3-chloro-4-((3-fluorobenzyl)oxy)phenyl)-6-(5-((morpholinyl)methyl)-2-thienyl)-4-quinazolinamine [MS 33] |  |  |  |  |  |  |  |  |  |  | 
7 | < 10 µM | < 10 µM | < 10 µM | < 10 µM |  |  | O=C(O)CCC(NCc1ccc(-c2ccc3ncnc(Nc4ccc(OCc5cccc(F)c5)c(Cl)c4)c3c2)o1)C(=O)O (stereo not drawn) [MS 23, N-(3-chloro-4-((3-fluorobenzyl)oxy)phenyl)-6-(5-(((1,3-dicarboxypropyl)amino)methyl)-2-furyl)-4-quinazolinamine] |  |  | 804.3 ± 230.3^▴ mm^3 | 153.5 ± 74.8 mm^3 | 25.7 ± 2.0 g | 25.3 ± 1.5 g | 38.2% | better effective inhibition; also recorded: better growth inhibition effect | better inhibitory activity; also recorded: higher inhibitory activity |  | 
8 | < 10 µM | < 10 µM | < 10 µM | < 10 µM |  |  | OCCNCc1ccc(-c2ccc3ncnc(Nc4ccc(OCc5cccc(F)c5)c(Cl)c4)c3c2)o1 [MS27·dimethanesulfonate, N-(3-chloro-4-((3-fluorobenzyl)oxy)phenyl)-6-(5-(((2-hydroxyethyl)amino)methyl)-2-furyl)-4-quinazolinamine] | 49.8^★ % | 1214.25 ± 944.16^★ mm^3 | 775.6 ± 215.4^▴ mm^3 | 155.3 ± 71.2 mm^3 | 25.6 ± 2.2 g | 25.0 ± 2.7 g | 36.4% |  |  | 97.06 ± 38.91 mm^3 | good activity
9 | < 10 µM | < 10 µM | < 10 µM | < 10 µM |  |  | OCCN(CCO)Cc1ccc(-c2ccc3ncnc(Nc4ccc(OCc5cccc(F)c5)c(Cl)c4)c3c2)o1 [MS18·dimethanesulfonate, N-(3-chloro-4-((3-fluorobenzyl)oxy)phenyl)-6-(5-((bis(2-hydroxyethyl)amino)methyl)-2-furyl)-4-quinazolinamine] |  |  |  |  |  |  |  |  |  |  | 
